Read-outs that look alike come from different tables or passages of the source.
Columns and labels:
[1] = LUC2001 (NCT02699606): pharmacokinetics and PK/PD (serum phosphate); assay type: in vivo, human
Procedure: Pharmacodynamic and safety: Serum phosphate concentration was continuously monitored as a pharmacodynamic endpoint during the study to facilitate dose adjustment per protocol specification. Serum phosphate was measured on cycle 1 day 14 for pharmacodynamic uptitration. On study, serum phosphate concentration was set to be below 7 mg/dL in order to avoid prolonged hyperphosphatemia.
Post hoc visual predictive check was performed on an existing population PK model, built with data from 373 patients with various tumor types (majority were caucasians).
Post hoc visual predictive check was performed on serum phosphate concentration data based on an existing population PK/PD model.

[2] = system: advanced cholangiocarcinoma subjects with FGFR alterations
Procedure: Tumor assessments: Conducted every 8 (±1) weeks up to 1 year from start of study drug, then every 12 (±1) weeks thereafter until the patient dies, or withdrawal of consent or conclusion of the study, whichever occurs first.
ORR (complete response [CR] or partial response [PR]) and disease control rate (DCR) was calculated with 95% CI.
PFS was represented with descriptive summary statistics; Kaplan-Meier method was used for evaluation.

[3] = system: patients with FGFR-aberrant cholangiocarcinoma
[4] = conclusion of snapshot 20 Mar. 2018
[5] = as of 20 Aug. 2018, FGFR2 fusion
[6] = as of 20 Aug. 2018, patients with FGFR2 alteration (n=9)
[7] = snapshot as of 20 Mar. 2018, 11 response evaluable, 8 mg qd
[8] = as of 20 Aug. 2018, 11 patients
[9] = snapshot as of 20 Mar. 2018, 8 mg qd
[10] = snapshot as of 20 Mar. 2018, 11 subjects, 8 mg qd
[11] = median follow-up 5.5 mo, 11 patients
[12] = of the 3 partial responses among 11 patients

COc1cc(OC)cc(N(CCNC(C)C)c2ccc3ncc(-c4cnn(C)c4)nc3c2)c1 [erdafitinib, N-(3,5-dimethoxy-phenyl)-N′-(1-methylethyl)-N-[3-(1-methyl-1H-pyrazol-4-yl)quinoxalin-6-yl]ethane-1,2-diamine]
results of PK and PK/PD relationship in Asian patients with advanced CCA ([1]; as of 20 Aug. 2018, post hoc visual predictive check on population PK and PK/PD models): consistent with that known from patients with other types of solid tumor and different ethnic background
PK characteristics [1, 4]: consistent with data from other erdafitinib studies
ORR - Objective Response Rate (CR+PR) ([2]; as of 20 Aug. 2018, 11 response evaluable, 8 mg once daily, n=5, 95% CI 16.7;76.6): 45.5%
ORR (CR+PR+uCR+uPR) ([2]; as of 20 Aug. 2018, 11 response evaluable, 8 mg once daily, n=6, 95% CI 23.4;83.3): 54.5%
Disease Control Rate-DCR (CR+PR+SD) ([2]; as of 20 Aug. 2018, 11 response evaluable, 8 mg once daily, n=8, 95% CI 39.0;94.0): 72.7%
DCR (CR+PR+uCR+uPR+SD) ([2]; as of 20 Aug. 2018, 11 response evaluable, 8 mg once daily, n=9, 95% CI 48.2;97.7): 81.8%
9-months PFS rate ([2]; as of 20 Aug. 2018, 95% CI 11, 68): 40%
stable disease (SD), number of patients [2, 5]: 3
unconfirmed PR, number of patients [2, 5]: 1
confirmed PR, number of patients ([2]; as of 20 Aug. 2018, all FGFR2 alteration (1 mutation and 4 fusions)): 5
progressive disease (PD), number of patients ([2]; as of 20 Aug. 2018, both with FGFR3 mutations and concurrent KRAS mutations): 2
9-months PFS rate [2, 6]: 49%
DCR [2, 6]: 100%
ORR (CR+PR+uCR+uPR) [2, 6]: 66.7%
maximum tumor shrinkage ([2]; one PR patient with a FGFR2-KIAA1598 fusion): −46.2%
DCR (CR+PR+uCR+uPR+SD) [2, 7]: 81.8%
ORR (CR+PR+uCR+uPR) [2, 7]: 45.5%
PD, number of subjects [2, 7]: 2
partial response (PR), number of subjects [2, 7]: 3
stable disease (SD), number of subjects [2, 7]: 4
unconfirmed PR (uPR), number of subjects [2, 7]: 2
Drug-related TEAE Alanine aminotransferase increased, Any grade (Erdafitinib 8 mg (QD), N = 11): 2 N
Drug-related TEAE Aspartate aminotransferase increased, Any grade (Erdafitinib 8 mg (QD), N = 11): 2 N
Drug-related TEAE Constipation, Any grade (Erdafitinib 8 mg (QD), N = 11): 3 N
Drug-related TEAE Decreased appetite, Any grade (Erdafitinib 8 mg (QD), N = 11): 3 N
Drug-related TEAE Diarrhoea, Any grade (Erdafitinib 8 mg (QD), N = 11): 3 N
Drug-related TEAE Dry eye, Any grade (Erdafitinib 8 mg (QD), N = 11): 2 N
Drug-related TEAE Dry mouth, Any grade (Erdafitinib 8 mg (QD), N = 11): 8 N
Drug-related TEAE Dry mouth, ≥Grade 3 (Erdafitinib 8 mg (QD), N = 11): 1 N
Drug-related TEAE Dry skin, Any grade (Erdafitinib 8 mg (QD), N = 11): 5 N
Drug-related TEAE Dry skin, ≥Grade 3 (Erdafitinib 8 mg (QD), N = 11): 1 N
Drug-related TEAE Hyperphosphataemia, Any grade (Erdafitinib 8 mg (QD), N = 11): 10 N
Drug-related TEAE Hyponatremia, Any grade (Erdafitinib 8 mg (QD), N = 11): 1 N
Drug-related TEAE Hyponatremia, ≥Grade 3 (Erdafitinib 8 mg (QD), N = 11): 1 N
Drug-related TEAE Nail disorder, Any grade (Erdafitinib 8 mg (QD), N = 11): 4 N
Drug-related TEAE Nail disorder, ≥Grade 3 (Erdafitinib 8 mg (QD), N = 11): 1 N
Drug-related TEAE Nausea, Any grade (Erdafitinib 8 mg (QD), N = 11): 2 N
Drug-related TEAE Onycholysis, Any grade (Erdafitinib 8 mg (QD), N = 11): 1 N
Drug-related TEAE Onycholysis, ≥Grade 3 (Erdafitinib 8 mg (QD), N = 11): 1 N
Drug-related TEAE Onychomycosis, Any grade (Erdafitinib 8 mg (QD), N = 11): 2 N
Drug-related TEAE Palmar-plantar erythrodysaesthesia syndrome, Any grade (Erdafitinib 8 mg (QD), N = 11): 4 N
Drug-related TEAE Paronychia, Any grade (Erdafitinib 8 mg (QD), N = 11): 3 N
Drug-related TEAE Paronychia, ≥Grade 3 (Erdafitinib 8 mg (QD), N = 11): 1 N
Drug-related TEAE Punctate keratitis, Any grade (Erdafitinib 8 mg (QD), N = 11): 2 N
Drug-related TEAE Stomatitis, Any grade (Erdafitinib 8 mg (QD), N = 11): 8 N
Drug-related TEAE Stomatitis, ≥Grade 3 (Erdafitinib 8 mg (QD), N = 11): 2 N
Patients with drug-related TEAEs, Any grade (Erdafitinib 8 mg (QD), N = 11): 11 N
Patients with drug-related TEAEs, ≥Grade 3 (Erdafitinib 8 mg (QD), N = 11): 6 N
patients reporting Grade 3 or higher TEAEs (as of 20 Aug. 2018, 8 mg once daily): 6/11
AE leading to treatment discontinuation or death [8]: no AE
most common TEAEs [8]: hyperphosphatemia, dry mouth, stomatitis, dry skin, nail disorder, and palmar-plantar erythrodysaesthesia syndrome
patients who experienced drug-related TEAEs (as of 20 Aug. 2018, 11 patients, 8 mg once daily): All patients
Serious TEAEs (not drug-related) (as of 20 Aug. 2018, of 11 (27.3%), upper gastrointestinal haemorrhage, pyelonephritis acute, pathological fracture, n=1 each): 3 patients
Drug-related TEAEs leading to dose reduction (as of 20 Aug. 2018, of 11 patients (45.5%)): 5 patients
Grade 3 or higher drug-related TEAEs (as of 20 Aug. 2018, of 11 patients (54.5%)): Six
drug-related TEAEs leading to dose interruption (as of 20 Aug. 2018, of 11 patients (100%)): 11 patients
safety profile in patients with FGFR-aberrant advanced cholangiocarcinoma [4]: tolerable safety profile
AE diarrhea (subjects) [9]: 4/11
AE dry mouth (subjects) [9]: 7/11
AE hyperphosphatemia (subjects) [9]: 8/11
AE nail disorder (subjects) [9]: 4/11
AE palmar-plantar erythrodysaesthesia syndrome (subjects) [9]: 4/11
AE stomatitis (subjects) [9]: 7/11
AE leading to treatment discontinuation or death [10]: no AE
drug related SAE [10]: no drug related SAE
subjects who experienced AEs [10]: All subjects
subjects who experienced Grade 3 or worse AEs [10]: 7
subjects who experienced serious AEs (SAEs) [10]: 3
subjects with AEs leading to dose reduction [10]: 3
subjects with AEs leading to drug interruption [10]: all
objective response rate ([3]; 9 mg QD or 10 mg intermittent, all responses at 10 mg intermittent): 27.3%
partial responses (number of patients) ([3]; 11 patients with FGFR-aberrant cholangiocarcinoma, 9 mg QD (n=1) or 10 mg intermittent (n=10)): 3
Overall disease control rate, including stable disease ([3]; 11 patients, 9 mg QD or 10 mg intermittent, 6/11): 54.5%
6-mo progression-free survival rate [3, 11]: 36%
9-mo progression-free survival rate [3, 11]: 24%
Median progression-free survival ([3]; median follow-up 5.5 mo, 95% CI 1.6 to 11.8 mo): 5.1 mo
partial responses in patients with fusion FGFR2-BICC1 [3, 12]: 1
partial responses in patients with fusion FGFR2-CCAR1 [3, 12]: 1
